# Where two headings read alike, the source gives them in different places.
# Columns and labels:
# [1] = cited from earlier work
# [2] = test system: DAOY human Medulloblastoma cells; details: for relative effectiveness on medulloblastoma cells (DAOY cells): two versus one artemisinin moiety
# Protocol: DAOY human Medulloblastoma cells (10,000 cells/200 μL) were seeded on a 96 well plate and incubated for 24 h at 37° C. Cell culture medium was removed after 24 h and 150 μL of medium with different combinations of drug treatment was added. Human holotransferrin (20 μM) was added to half of the samples. Treatment medium was removed after 48 h, and 100 μL of cell medium was added, and the following protocol was used to determine cell viability: (1) 10 μL of 12 mM MTT reagent was added to each well; (2) the cultures were incubated at 37° C. for 4 h; (3) 100 μL of isopropanol was added to each well to lyse the cells and then incubated at 4° C. for 30 min; (4) after incubation each well was plunged (3×200 μL) to ensure the cells were lysed; (5) the samples were then centrifuged at 13,000 rpm in a microcentrifuge for 3 min at room temperature; and (6) 100 μL of the supernatant was read in a plate reader at λ=570 nm.
# [3] = test system: human Molt-4 lymphobastoid leukemia cells; test: cells; details: for IC50: read-out: IC50 on Molt-4 cells
# Protocol: (§1) The artemisinin-tagged peptide HAIYPRH was tested on human Molt-4 lymphobastoid leukemia cells and compared with normal human lymphocytes, as follows. […] Cell viability was determined before an experiment by using trypan blue dye exclusion. After an initial counting of cells, human holotransferrin (Sigma Chemicals, St. Louis, Mo.) was added to samples of the cells. […] An equal volume of medium was added to control samples. […] At 24, 48 and 72 hrs after the addition of the tagged peptide, cell concentrations in appropriate flasks were counted using a counting hemocytometer chamber and microscope. In a similar set up, the same procedures were carried out on normal human lymphocytes.
# normal human lymphocytes = test: Toxicity of artemisinin-tagged peptide in normal lymphocytes (cell counting)
# Protocol: as §1
# human leukemia cells = details: cited from earlier work
smiles,measurement,setting,value
CO[C@H]1O[C@@H]2O[C@@]3(C)CC[C@H]4[C@H](C)CC[C@@H]([C@H]1C)[C@@]24OO3 [artemether],adverse side effects,"[1]; patient with pituitary macroadenoma, oral, 12 months",without any observed adverse side effects
CC[C@H](C)[C@H](NC(=O)[C@H](C)NC(=O)[C@H](Cc1c[nH]cn1)NC(=O)[C@H](CCCCNC(=O)c1ccc(/C=N/NC(=O)c2ccc(COC3OC4O[C@@]5(C)CCC6[C@H](C)CCC([C@H]3C)[C@@]46OO5)cc2)cc1)NC(=O)c1ccc(/C=N/NC(=O)c2ccc(COC3OC4O[C@@]5(C)CCC6[C@H](C)CCC([C@H]3C)[C@@]46OO5)cc2)cc1)C(=O)N[C@@H](Cc1ccc(O)cc1)C(=O)N1CCC[C@H]1C(=O)N[C@@H](CCCNC(=N)N)C(=O)N[C@@H](Cc1c[nH]cn1)C(N)=O (stereo partly shown) [ART2-peptide],effect on medulloblastoma cells (DAOY cells),"[2]; 48 h treatment, MTT",effective
same,relative effectiveness on medulloblastoma cells (DAOY cells),[2],more effective than ART-peptide
same,relative effectiveness on medulloblastoma cells (DAOY cells),[2]; listed as peptide containing two artemisinin moieties,more potent than peptide containing one moiety
same,change in activity after storage in DMSO,[3]; kept in DMSO at room temperature for one month,essentially no change in activity
same,IC50,"[3]; at 72 hrs, holotransferrin 12 μM",0.86 ± 0.1 µM
"C[C@H]1[C@@H](O)O[C@@H]2O[C@@]3(C)CC[C@H]4[C@H](C)CC[C@@H]1[C@@]24OO3 [DHA, dihydroartemisinin]",IC50,"[3]; Homo sapiens, MOLT-4, 72 h",5.3 ± 0.26 µM
same,LD50 (μM) (fresh sample),"[3]; fresh sample, after 72 hr",5.3 ± 0.26 µM
same,LD50 (μM) (after stored in DMSO at room temperature for 30 days),"[3]; stored in DMSO at room temperature for 30 days, after 72 hr",5.01 ± 0.35 µM
same,IC50,"normal human lymphocytes; Homo sapiens, Lymphocyte, read-out: IC50 for normal leukocytes",43 ± 22 µM
C[C@H]1[C@H](OC(=O)CCC(=O)O)O[C@@H]2O[C@@]3(C)CC[C@H]4[C@H](C)CC[C@@H]1[C@@]24OO3 [artesunate],adverse side effects,"[1]; cancer patient, 9 months (i.m. 60 mg/day 15 days; oral 50 mg per day 8.5 months)",No apparent adverse side effects
CC[C@H](C)[C@H](NC(=O)[C@H](C)NC(=O)[C@H](Cc1c[nH]cn1)NC(=O)c1ccc(/C=N/NC(=O)c2ccc(COC3OC4O[C@@]5(C)CCC6[C@H](C)CCC([C@H]3C)[C@@]46OO5)cc2)cc1)C(=O)N[C@@H](Cc1ccc(O)cc1)C(=O)N1CCC[C@H]1C(=O)N[C@@H](CCCNC(=N)N)C(=O)N[C@@H](Cc1c[nH]cn1)C(N)=O (stereo partly shown) [ART-peptide],effect on normal lymphocytes (cell viability),"normal human lymphocytes; 3.1, 6.2, 12.4 μM, 24, 48 and 72 hours",without affecting normal lymphocytes
C[C@@H]1CC[C@H]2[C@@H](C)C(=O)O[C@@H]3O[C@@]4(C)CC[C@@H]1[C@]32OO4 [Artemisinin],therapeutic index (toxicity towards cancer cells versus normal cells),human leukemia cells,approximately 100

# From patent publication US9169291B2, “Covalent conjugates between endoperoxides and transferrin and lactoferrin receptor-binding agents” (University of Washington, priority 2006, dated 2015)
